Where a name gives a salt, the structure may show the parent alone. Read-outs that look alike come from different tables or passages of the source.
What was measured:
[1] = molecular target: human GlyT1c (Homo sapiens (Human), UniProt P48067); assay: [3H]-Glycine uptake into recombinant CHO cells expressing human GlyT1; format: cell-based; conditions: hGlyT1c_5_CHO cells, 200 nM [3H]-glycine
Outline: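 hGlyT1c-expressing CHO cells plated at 20,000 cells/well and cultured 24 h; [3H]-glycine incorporation read continuously by solid-phase scintillation for up to 3 h. IC50 from four-parameter logistic fit using the linear uptake phase between 60 and 120 min.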

[2] = molecular target: human GlyT1c transporter (Homo sapiens (Human), UniProt P48067); assay: Radioligand binding assay using recombinant CHO cell membranes expressing human GlyT1; conditions: read-out: radioligand binding Kiapp
human GlyT1c transporter, sequence (P48067 whole entry): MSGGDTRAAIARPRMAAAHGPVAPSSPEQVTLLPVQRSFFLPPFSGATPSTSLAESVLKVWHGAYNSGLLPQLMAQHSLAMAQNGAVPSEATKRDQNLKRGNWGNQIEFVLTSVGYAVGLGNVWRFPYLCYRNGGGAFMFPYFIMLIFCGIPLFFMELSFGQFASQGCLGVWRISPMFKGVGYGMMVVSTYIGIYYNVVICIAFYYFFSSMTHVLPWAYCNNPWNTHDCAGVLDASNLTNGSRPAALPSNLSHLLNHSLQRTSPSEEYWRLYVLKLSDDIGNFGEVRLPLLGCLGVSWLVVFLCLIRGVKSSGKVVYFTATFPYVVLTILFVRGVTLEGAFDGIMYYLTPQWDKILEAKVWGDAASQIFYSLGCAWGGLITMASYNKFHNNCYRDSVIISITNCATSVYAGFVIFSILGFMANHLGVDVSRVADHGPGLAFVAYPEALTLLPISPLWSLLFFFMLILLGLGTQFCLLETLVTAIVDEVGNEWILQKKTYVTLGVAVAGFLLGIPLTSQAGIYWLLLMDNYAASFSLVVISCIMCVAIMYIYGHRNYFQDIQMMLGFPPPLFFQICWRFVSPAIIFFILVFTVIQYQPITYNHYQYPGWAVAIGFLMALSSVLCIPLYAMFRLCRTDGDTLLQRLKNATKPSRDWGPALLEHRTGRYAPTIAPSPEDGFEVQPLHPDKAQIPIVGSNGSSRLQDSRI
Outline: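 Apparent Ki values were derived by Cheng-Prusoff from one-site IC50 fits of displacement curves. Membranes from recombinant CHO cells (human GlyT1c, 50 μg/ml) were incubated 1 h at room temperature with 0.5 nM [^3H]-(R)-NPTS and test compound (1% DMSO, pH 7.5 buffer), with 10 μM Org24598 for non-specific binding, then filtered and counted.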

[3] = examples 88-204, radioligand not specified by footnote
[4] = radioligand [3H]-(R)-NPTS (examples 1-19, 22-52, 54-87)

human GlyT1c, sequence (P48067 whole entry): as above

IC50 [1] [µM] | Ki [2, 3] [µM] | Ki [2, 4] [µM] | SMILES | IC50 ([1]; hydrochloride) [µM]
≤ 10 | ≤ 1 |  | O=S(=O)(NCc1ccc2c(c1)C(C1(c3ccc(Cl)cc3)CCC1)NCC2)c1cccnc1 (stereo not shown) [Example 108, N-({1-[1-(4-Chlorophenyl)cyclobutyl]-1,2,3,4-tetrahydroisoquinolin-7-yl}methyl)pyridine-3-sulfonamide dihydrochloride] | 
≤ 10 | ≤ 10 |  | CCCNCCCS(=O)(=O)NCCOc1ccc2c(c1)C(C1(c3ccc(Cl)cc3)CCC1)NCC2 (stereo not shown) [Example 186, N-[2-({1-[1-(4-Chlorophenyl)cyclobutyl]-1,2,3,4-tetrahydroisoquinolin-7-yl}oxy)ethyl]-3-(propylamino)propane-1-sulfonamide (2E)-but-2-enedioate] | 
≤ 10 | ≤ 1 |  | O=S(=O)(NCCOc1ccc2c(c1)C(C1(c3ccc(Cl)cc3)CCC1)NCC2)c1c(Cl)nc2sccn12 (stereo not shown) [Example 167, 6-Chloro-N-[2-({1-[1-(4-Chlorophenyl)cyclobutyl]-1,2,3,4-tetrahydroisoquinolin-7-yl}oxy)ethyl]imidazo[2,1-b][1,3]thiazole-5-sulfonamide hydrochloride] | 
≤ 100 | ≤ 1 |  | O=S(=O)(Nc1ccccc1Oc1ccc2c(c1)C(C1(c3ccc(Cl)cc3)CCC1)NCC2)c1cccs1 (stereo not shown) [Example 116, N-[2-({1-[1-(4-Chlorophenyl)cyclobutyl]-1,2,3,4-tetrahydroisoquinolin-7-yl}oxy)phenyl]thiophene-2-sulfonamide hydrochloride] | 
≤ 1 | ≤ 0.1 |  | O=S(=O)(NCCOc1ccc2c(c1)C(C1(c3cccc(F)c3)CCC1)NCC2)c1cccnc1 (stereo not shown) [Example 101, N-[2-({1-[1-(3-fluorophenyl)cyclobutyl]-1,2,3,4-tetrahydroisoquinolin-7-yl}oxy)ethyl]pyridine-3-sulfonamide dihydrochloride] | 
≤ 1 |  | ≤ 10 | CCCS(=O)(=O)NCCOc1ccc2c(c1)C(C1(c3ccc(F)cc3)CCC1)N(C(=N)N)CC2 (stereo not shown) [Example 72, 1-[1-(4-Fluorophenyl)cyclobutyl]-7-{2-[(propylsulfonyl)amino]ethoxy}-3,4-dihydroisoquinoline-2(1H)-carboximidamide acetate] | 
≤ 100 | ≤ 10 |  | CC(C)(C)OC(=O)N1CCN(S(=O)(=O)CCCOc2ccc3c(c2)C(C2(c4ccc(Cl)cc4)CCC2)NCC3)CC1 (stereo not shown) [Example 123, tert-Butyl 4-{[3-({1-[1-(4-chlorophenyl)cyclobutyl]-1,2,3,4-tetrahydroisoquinolin-7-yl}oxy)propyl]sulfonyl}piperazine-1-carboxylate] | 
≤ 0.1 |  | ≤ 1 | O=S(=O)(NCCOc1ccc2c(c1)C(C1(c3ccc(Cl)cc3)CCC1)NCC2)c1cccs1 (stereo not shown) [Example 17, Thiophene-2-sulfonic acid (2-{1-[1-(4-chloro-phenyl)-cyclobutyl]-1,2,3,4-tetrahydro-isoquinolin-7-yloxy}-ethyl)-amide hydrochloride] | 
≤ 10 | ≤ 10 |  | CC(C)(C)OC(=O)NCCNS(=O)(=O)CCCOc1ccc2c(c1)C(C1(c3ccc(Cl)cc3)CCC1)NCC2 (stereo not shown) [Example 126, tert-Butyl [2-({[3-({1-[1-(4-chlorophenyl)cyclobutyl]-1,2,3,4-tetrahydroisoquinolin-7-yl}oxy)propyl]sulfonyl}amino)ethyl]carbamate] | 
≤ 10 |  | ≤ 100 | O=S(=O)(NCCOc1ccc2c(c1)C(C1(c3ccc(Cl)cc3)CCC1)NCC2)c1ccc(-c2ccon2)s1 (stereo not shown) [Example 22, 5-Isoxazol-3-yl-thiophene-2-sulfonic acid (2-{1-[1-(4-chloro-phenyl)-cyclobutyl]-1,2,3,4-tetrahydro-isoquinolin-7-yloxy}-ethyl)-amide hydrochloride] | 
≤ 0.1 | ≤ 0.1 |  | CCCS(=O)(=O)NCCOc1ccc2c(c1)C(C1(c3ccc(Cl)c(N)c3)CCC1)NCC2 (stereo not shown) [Example 142, N-[2-({1-[1-(3-Amino-4-chlorophenyl)cyclobutyl]-1,2,3,4-tetrahydroisoquinolin-7-yl}oxy)ethyl]propane-1-sulfonamide dihydrochloride] | 
≤ 0.1 |  | ≤ 0.1 | CCCS(=O)(=O)NCCOc1ccc2c(c1)C(C1(c3ccc(F)cc3)CCC1)NCC2 (stereo not shown) [Example 65, N-[2-({1-[1-(4-Fluorophenyl)cyclobutyl]-1,2,3,4-tetrahydroisoquinolin-7-yl}oxy)ethyl]propane-1-sulfonamide hydrochloride] | 
≤ 10 | ≤ 10 |  | CCN(CC)CCCS(=O)(=O)NCCOc1ccc2c(c1)C(C1(c3ccc(Cl)cc3)CCC1)NCC2 (stereo not shown) [Example 194, N-[2-({1-[1-(4-Chlorophenyl)cyclobutyl]-1,2,3,4-tetrahydroisoquinolin-7-yl}oxy)ethyl]-3-(diethylamino)propane-1-sulfonamide] | 
≤ 10 |  | ≤ 10 | O=S(=O)(NCCOc1ccc2c(c1)C(C1(c3ccc(Cl)cc3)CCC1)NCC2)c1ccc2ccccc2c1 (stereo not shown) [Example 9, Naphthalene-2-sulfonic acid (2-{1-[1-(4-chloro-phenyl)-cyclobutyl]-1,2,3,4-tetrahydro-isoquinolin-7-yloxy}-ethyl)-amide hydrochloride] | 
≤ 10 | ≤ 1 |  | O=S(=O)(NCCOc1ccc2c(c1)C(C1(c3cccc(F)c3)CCC1)NCC2)c1cccs1 (stereo not shown) [Example 106, N-[2-({1-[1-(3-Fluorophenyl)cyclobutyl]-1,2,3,4-tetrahydroisoquinolin-7-yl}oxy)ethyl]thiophene-2-sulfonamide hydrochloride] | 
≤ 0.1 | ≤ 0.1 |  | CC(C)(O)CS(=O)(=O)NCCOc1ccc2c(c1)C(C1(c3ccc(Cl)cc3)CCC1)NCC2 (stereo not shown) [Example 103, N-[2-({1-[1-(4-Chlorophenyl)cyclobutyl]-1,2,3,4-tetrahydroisoquinolin-7-yl}oxy)ethyl]-2-hydroxy-2-methylpropane-1-sulfonamide hydrochloride] | 
≤ 100 | ≤ 10 |  | CC(C)NCCCS(=O)(=O)NCCOc1ccc2c(c1)C(C1(c3ccc(Cl)cc3)CCC1)NCC2 (stereo not shown) [Example 197, N-[2-({1-[1-(4-Chlorophenyl)cyclobutyl]-1,2,3,4-tetrahydroisoquinolin-7-yl}oxy)ethyl]-3-(propan-2-ylamino)propane-1-sulfonamide (2E)-but-2-enedioate] | 
≤ 1 |  | ≤ 1 | O=S(=O)(NCCOc1ccc2c(c1)C(C1(c3ccc(Cl)cc3)CCC1)NCC2)c1ccc(Cl)nc1 (stereo not shown) [Example 29, 6-Chloro-pyridine-3-sulfonic acid (2-{1-[1-(4-chloro-phenyl)-cyclobutyl]-1,2,3,4-tetrahydro-isoquinolin-7-yloxy}-ethyl)-amide hydrochloride] | 
≤ 0.1 |  | ≤ 0.1 | CCCCS(=O)(=O)NCCOc1ccc2c(c1)C(C1(c3ccc(Cl)cc3)CCC1)NCC2 (stereo not shown) [Example 16, Butane-1-sulfonic acid (2-{1-[1-(4-chloro-phenyl)-cyclobutyl]-1,2,3,4-tetrahydro-isoquinolin-7-yloxy}-ethyl)-amide hydrochloride] | 
≤ 100 | ≤ 100 |  | O=S(=O)(CCCN1CCOCC1)NCCOc1ccc2c(c1)C(C1(c3ccc(Cl)cc3)CCC1)NCC2 (stereo not shown) [Example 201, N-[2-({1-[1-(4-Chlorophenyl)cyclobutyl]-1,2,3,4-tetrahydroisoquinolin-7-yl}oxy)ethyl]-3-(morpholin-4-yl)propane-1-sulfonamide (2E)-but-2-enedioate] | 
≤ 10 | ≤ 100 |  | CCNC(=O)NCCS(=O)(=O)NCCOc1ccc2c(c1)C(C1(c3ccc(Cl)cc3)CCC1)NCC2 (stereo not shown) [Example 202, N-[2-({1-[1-(4-Chlorophenyl)cyclobutyl]-1,2,3,4-tetrahydroisoquinolin-7-yl}oxy)ethyl]-2-[(ethylcarbamoyl)amino]ethanesulfonamide (2E)-but-2-enedioate] | 
≤ 10 | ≤ 10 |  | CN(C)CCNS(=O)(=O)CCCOc1ccc2c(c1)C(C1(c3ccc(Cl)cc3)CCC1)NCC2 (stereo not shown) [Example 132, 3-({1-[1-(4-Chlorophenyl)cyclobutyl]-1,2,3,4-tetrahydroisoquinolin-7-yl}oxy)-N-[2-(dimethylamino)ethyl]propane-1-sulfonamide dihydrochloride] | 

SMILES | IC50 [1] [µM] | Ki [2, 3] [µM] | Ki [2, 4] [µM] | IC50 ([1]; hydrochloride) [µM]
N#Cc1ccccc1S(=O)(=O)NCCOc1ccc2c(c1)C(C1(c3ccc(Cl)cc3)CCC1)NCC2 (stereo not shown) [Example 23, N-(2-{1-[1-(4-Chloro-phenyl)-cyclobutyl]-1,2,3,4-tetrahydro-isoquinolin-7-yloxy}-ethyl)-2-cyano-benzenesulfonamide hydrochloride] | ≤ 10 |  | ≤ 10 | 
O=S(=O)(NCCOc1ccc2c(c1)C(C1(c3ccc(Cl)cc3)CCC1)NCC2)c1cccnc1 (stereo not shown) [Example 10, Pyridine-3-sulfonic acid (2-{1-[1-(4-chloro-phenyl)-cyclobutyl]-1,2,3,4-tetrahydro-isoquinolin-7-yloxy}-ethyl)-amide hydrochloride] |  |  | ≤ 0.1 | ≤ 0.1
CCCS(=O)(=O)NCCOc1ccc2c(c1)C(C1(c3ccc(Cl)cc3)CCC1)NCC2 (stereo not shown) [Example 4, Propane-1-sulfonic acid (2-{1-[1-(4-chloro-phenyl)-cyclobutyl]-1,2,3,4-tetrahydro-isoquinolin-7-yloxy}-ethyl)-amide hydrochloride] | ≤ 0.1 |  | ≤ 0.1 | 
COc1ccccc1S(=O)(=O)NCCOc1ccc2c(c1)C(C1(c3ccc(Cl)cc3)CCC1)NCC2 (stereo not shown) [Example 18, N-(2-{1-[1-(4-Chloro-phenyl)-cyclobutyl]-1,2,3,4-tetrahydro-isoquinolin-7-yloxy}-ethyl)-2-methoxy-benzenesulfonamide hydrochloride] | ≤ 1 |  | ≤ 10 | 

Source: patent publication US8653100B2 (AbbVie Inc., priority 2008, dated 2014)
